Results: patent US20170128475A1, “COMPOSITIONS AND METHODS FOR PREVENTING AND TREATING ORGAN INJURY AND/OR DYSFUNCTION” (THE GENERAL HOSPITAL CORPORATION, priority 2010, published 2017)

Columns and labels:
Cx32 gap junctions [1] = assay: Dye-coupling parachute assay, HeLa Cx32 cells; assay type: cell-based; conditions: 2APB 100 μM, 4 hours, normalized to no 2APB
Protocol: (§1) FIG. 2A-FIG. 2F presents data on small molecule inhibitors of Cx32 that selectively block hepatic gap junction communication and limit drug-induced hepatotoxicity. FIG. 2A and FIG. 2B depict a dye-coupling parachute assay was used to determine the specificity of 2APB for Cx32 gap junctions compared to Cx43 gap junctions. HeLa Cx32 or Cx43 cells were loaded with gap junction permeable calcein-AM (10 μM) and impermeable CM-DiI (10 μM), and seeded onto unlabeled recipient HeLa Cx32 or Cx43 cells, respectively, in the presence or absence of 2APB (100 μM). After 4 hours, the co-culture was analyzed by fluorescence microscopy (n>5), and gap junction communication was assessed by calculating the average number of calcein positive cells per CM-Dil positive cells, normalized to control conditions without 2APB treatment. FIG. 2C depicts a tissue version of the scrape and load test, developed to evaluate functional gap junction intercellular communication in liver tissue. Cx32+/+ and Cx32−/− mice were treated with saline, 2APB (20 mg/kg), or 2APB plus TAA (200 mg/kg) for 3 hours. […] Slices were washed, fixed, cryosectioned (7 μm), and analyzed by fluorescence microscopy (n>5) and custom automated image analysis software to produce iso-intensity contour maps outlining spread of Lucifer yellow and dextran-Texas red. […]

Cx43 gap junctions = assay: Dye-coupling parachute assay, HeLa Cx43 cells; assay type: cell-based; conditions: 2APB 100 μM, 4 hours, normalized to no 2APB
Protocol: as §1

[2] = test system: hepatic gap junction communication; assay: Tissue scrape and load assay on explanted liver slices; assay type: in vivo, mice; conditions: 2APB 20 mg/kg i.p.; livers excised after 3 hours
Protocol: as §1, with “treatment.” for “treatment. FIG. 2C depicts a tissue version of the scrape and load test, developed to evaluate functional gap junction intercellular communication in liver tissue. Cx32+/+ and Cx32−/− mice were treated with saline, 2APB (20 mg/kg), or 2APB plus TAA (200 mg/kg) for 3 hours.”
Fluorescence images were captured on a Zeiss 200 Axiovert microscope at a fixed exposure and gain. Images for the tissue scrape load assay were quantified using custom image analysis routines written in MATLAB13. […] Regional outlines were plotted as contour maps by displaying iso-intensity lines at the determined threshold level.

wild type mice [3] = assay: TAA-induced hepatotoxicity in wild type mice treated with 2APB; assay type: in vivo; conditions: for total hepatic ROS levels: 2APB (20 mg/kg) coadministered with TAA (200 mg/kg), 4 hours, dihydroethidium staining
Protocol: FIG. 2A-FIG. 2F presents data on small molecule inhibitors of Cx32 that selectively block hepatic gap junction communication and limit drug-induced hepatotoxicity. FIG. 2A and FIG. 2B depict a dye-coupling parachute assay was used to determine the specificity of 2APB for Cx32 gap junctions compared to Cx43 gap junctions. HeLa Cx32 or Cx43 cells were loaded with gap junction permeable calcein-AM (10 μM) and impermeable CM-DiI (10 μM), and seeded onto unlabeled recipient HeLa Cx32 or Cx43 cells, respectively, in the presence or absence of 2APB (100 μM). After 4 hours, the co-culture was analyzed by fluorescence microscopy (n>5), and gap junction communication was assessed by calculating the average number of calcein positive cells per CM-Dil positive cells, normalized to control conditions without 2APB treatment. FIG. 2C depicts a tissue version of the scrape and load test, developed to evaluate functional gap junction intercellular communication in liver tissue. Cx32+/+ and Cx32−/− mice were treated with saline, 2APB (20 mg/kg), or 2APB plus TAA (200 mg/kg) for 3 hours. Livers were excised, cut into 2-3 mm slices, and a small area of each slice was mechanically damaged with the insertion of a 27 gauge needle coated with 0.5% Lucifer yellow (gap junction permeable) and 0.5% Texas red labeled dextran (gap junction impermeable). Slices were washed, fixed, cryosectioned (7 μm), and analyzed by fluorescence microscopy (n>5) and custom automated image analysis software to produce iso-intensity contour maps outlining spread of Lucifer yellow and dextran-Texas red. […] FIG. 2D: Serum alanine aminotransferase (ALT) levels; FIG. 2E: liver tissue MPO activity; and FIG. 2F: H&E liver sections (original magnification 10×; scale bar=400 μm) from wildtype mice pretreated with 2APB (20 mg/kg) or vehicle for 60 minutes, and then challenged with TAA (200 mg/kg) for 24 hours.
(§2) Serum ALT levels (FIG. 3A); liver tissue MPO activity (FIG. 3B); and H&E liver sections (FIG. 3C) (original magnification 10×; scale bar=400 μm) from wildtype mice after treatment with 2APB alone (20 mg/kg), TAA (200 mg/kg) plus vehicle, TAA (200 mg/kg) plus 2APB (1 or 20 mg/kg), APAP (500 mg/kg) plus vehicle, or APAP (500 mg/kg) plus 2APB (20 mg/kg). Livers and sera were collected 24 hours after TAA challenge, or 16 hours after APAP challenge. FIG. 3D reflects Q-PCR for TNF-α, […], IL-6, and CCL5 from whole livers of mice treated with TAA and 2APB as described above. FIG. 3E is a Kaplan-Meier survival curve for wildtype mice over 30 days after a single lethal dose of TAA (500 mg/kg) plus vehicle, or TAA (500 mg/kg) plus 2APB (20 mg/kg) (n=10). Serum ALT levels (FIG. 3F) and H&E liver sections (FIG. 3G) (original magnification 10×; scale bar=400 μm) from wildtype mice after TAA (200 mg/kg) or APAP (500 mg/kg), with or without a rescue injection of 2APB (20 mg/kg) at 1.5, 3 or 6 hours after hepatotoxin challenge. Livers and sera were collected 24 hours after TAA challenge, or 16 hours after APAP challenge.
Liver cryosections from Cx32+/+ mice treated with vehicle, TAA (200 mg/kg) plus vehicle, or TAA (200 mg/kg) plus 2APB (20 mg/kg) for 4 hours were stained with dihydroethidium, a cell permeable free radical probe that binds nucleic DNA and becomes fluorescent when […], and analyzed by fluorescence microscopy for ROS activity (n>5).
TAA (Sigma Aldrich, St. Louis, Mo.) solution was made fresh for each experiment in 0.9% saline at 20 mg/ml. TAA was dosed at 200, 500 or 1000 mg/kg, depending on the experiment, and injected intraperitoneally. Control mice received the appropriate volume of 0.9% saline. Animals were euthanized by ketamine/xylazine injection at 24 hr for collection of serum and liver tissue for qPCR, GSH/GST assay, MPO activity assay, and histology. For survival experiments, animals were observed every 24 hr for 30 days.
2APB (Sigma Aldrich) was made fresh for each experiment in DMSO as a vehicle at 200 mg/ml. […]

wild type mice [4] = assay: APAP-induced hepatotoxicity in wild type mice treated with 2APB; assay type: in vivo
Protocol: as §2
APAP (Sigma Aldrich) solution was made fresh for each experiment in 0.9% saline at 20 mg/ml and heated until dissolved. APAP was dosed at 500 or 750 mg/kg, and injected intraperitoneally after 15 hr of starvation. Animals were euthanized by ketamine/xylazine injection at 16 hr for collection of serum, and liver tissue for MPO activity assay and histology.
2APB (Sigma Aldrich) was made fresh for each experiment in DMSO as a vehicle at 200 mg/ml. 2APB was dosed at 1 or 20 mg/kg, and was administered before (90 min), with, or after (1.5, 3 or 6 hr) the appropriate dose of TAA or APAP. Vehicle control mice received the appropriate volume of DMSO. Fresh anhydrous DMSO (Sigma Aldrich) was used for each experiment. DMSO was dosed at 0.1 or 1 ml/kg, and coadministered concurrently with 200 mg/kg TAA or saline.
Mouse liver tissues were homogenized in MPO buffer (0.5% hexadecyl trimethyl ammonium bromide, 10 mM EDTA, 50 mM Na2HPO4, pH 5.4) using a Polytron homogenizer. Liver homogenates were then subject to three freeze-thaw cycles and cleared by centrifugation. MPO reaction was carried out using the Invitrogen EnzChek Myeloperoxidase Activity Assay Kit (Invitrogen, Carlsbad, Calif.), according to the manufacturer's protocol.

Cx32 gap junctions [5] = molecular target: Cx32 gap junctions (Homo sapiens, UniProt P08034); conditions: shown previously, Tao & Harris, 71 Mol. Pharmacol. 57 (2007); cited from earlier work
Chain of Cx32 gap junctions (Homo sapiens, UniProt P08034) (P08034 whole entry): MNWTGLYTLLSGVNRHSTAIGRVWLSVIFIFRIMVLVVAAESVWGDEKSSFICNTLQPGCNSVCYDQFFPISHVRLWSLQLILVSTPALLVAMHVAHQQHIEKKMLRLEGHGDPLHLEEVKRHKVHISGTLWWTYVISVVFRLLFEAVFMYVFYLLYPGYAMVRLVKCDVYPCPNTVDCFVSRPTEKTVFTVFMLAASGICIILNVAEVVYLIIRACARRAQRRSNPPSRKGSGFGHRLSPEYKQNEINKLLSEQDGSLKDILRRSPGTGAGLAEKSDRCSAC

Cx32+/+ and Cx32−/− mice = assay: TAA-induced mortality in Cx32+/+ and Cx32−/− mice; assay type: in vivo; conditions: single lethal dose 500 mg/kg TAA, 30 days
Protocol: FIG. 1C is a series of micrographs showing less liver hemorrhaging, necrosis and acute inflammation in Cx32−/− mice compared to Cx32+/+ mice 24 hours after TAA treatment (H&E staining; original magnification 10×; scale bar=400 μm). FIG. 1D presents bar graphs depicting increase in total liver TNF-α, pro-IL-1α, IL-6, and CCL5 transcripts, as measured by Q-PCR, in Cx32+/+ mice 12 hours after TAA, compared to Cx32−/− mice. FIG. 1E is a bar graph of liver tissue myeloperoxidase activity (MPO) in Cx32+/+ and Cx32−/− mice 24 hours after treatment with TAA. FIG. 1F is a Kaplan-Meier survival curve for Cx32+/+ and Cx32−/− mice over 30 days after a single lethal dose of 500 mg/kg TAA (Cx32+/+ and Cx32−/−: n=12).
C57BL/6 mice were purchased from Jackson Laboratory. Cx32−/− mice were a generous gift from K. Willecke (University of Bonn) and D. Paul (Harvard University). All animal protocols were approved by Massachusetts General Hospital Subcommittee on Research Animal Care. For survival experiments, animals were euthanized when they became moribund according to the criteria of lack of response to stimuli or lack of righting reflex.
TAA (Sigma Aldrich, St. Louis, Mo.) solution was made fresh for each experiment in 0.9% saline at 20 mg/ml. TAA was dosed at 200, 500 or 1000 mg/kg, depending on the experiment, and injected intraperitoneally. Control mice received the appropriate volume of 0.9% saline. […]

[6] = 2APB coadministered with TAA (200 mg/kg), 24 hours
[7] = rescue injection of 2APB (20 mg/kg) 6 hours after TAA (200 mg/kg)
[8] = single dose 2APB (20 mg/kg) 60 minutes prior to TAA (200 mg/kg), 24 hours, compared to vehicle
[9] = 2APB (20 mg/kg) coadministered with APAP (500 mg/kg), 16 hours
[10] = rescue injection of 2APB (20 mg/kg) 6 hours after APAP (500 mg/kg)

## NCCOB(c1ccccc1)c1ccccc1 [2APB, 2-aminoethyoxydiphenyl-borate]
Cx32 gap junctions [1]
  spread of calcein via Cx32 gap junctions: blocked
Cx43 gap junctions
  effect on Cx43 gap junctions (spread of calcein): minimal effect
[2]
  hepatic gap junction communication in vivo (spread of Lucifer yellow): effectively blocks
Wild type mice [3]
  total hepatic ROS levels: dramatically reduced
Wild type mice [3]; listed as 2-APB
  total hepatic ROS levels: abrogated
Wild type mice [3]; 2APB (1 or 20 mg/kg) coadministered with TAA (200 mg/kg), 24 hours, compared with TAA alone
  serum ALT: dramatically reduced
Wild type mice [3]; [6]
  histological evidence of hepatic necrosis and hemorrhaging: dramatically reduced
  neutrophil infiltration (liver tissue MPO activity): dramatically reduced
Wild type mice [3]; 2APB coadministered with TAA (200 mg/kg), Q-PCR of whole livers
  liver inflammation: dramatically reduced
Wild type mice [3]; rescue injection of 2APB (20 mg/kg) 1.5 hours after TAA (200 mg/kg)
  hepatotoxicity: nearly complete absence
Wild type mice [3]; [7]
  hepatocellular damage and necrosis: limited
  serum ALT levels: reduced
Wild type mice [3]; [8]
  histological evidence of parenchymal damage: dramatically reduced
  neutrophil infiltration (liver tissue MPO activity): limited
  serum ALT: significantly reduced
Wild type mice [3]; single lethal dose TAA (500 mg/kg) plus 2APB (20 mg/kg), 30 days
  survival: 100%
Wild type mice [4]; [9]
  histological evidence of hepatic necrosis and hemorrhaging: dramatically reduced
  neutrophil infiltration (liver tissue MPO activity): dramatically reduced
Wild type mice [4]; 2APB (20 mg/kg) coadministered with APAP (500 mg/kg), 16 hours, compared with APAP alone
  serum ALT: dramatically reduced
Wild type mice [4]; 2APB coadministered with APAP
  liver inflammation: dramatically reduced
  total hepatic ROS levels: dramatically reduced
Wild type mice [4]; rescue injection of 2APB (20 mg/kg) 1.5 hours after APAP (500 mg/kg)
  hepatotoxicity: nearly complete absence
Wild type mice [4]; [10]
  hepatocellular damage and necrosis: limited
  serum ALT levels: reduced
Cx32 gap junctions [5]
  inhibition of Cx32 gap junctions in vitro: transiently inhibit

## CC(=N)S [TAA, thioacetamide]
Cx32+/+ and Cx32−/− mice; Cx32+/+ mice
  mortality: 100%
Cx32+/+ and Cx32−/− mice; Cx32−/− mice
  survival: 100%
